{"source": "patent US6417235B2", "about": "“Method and use of α-amino-β-mercapto-ethane derivatives as dicarbonyl scavengers for treatment of conditions resulting from protein, lipid, and DNA damage” (University of Kentucky Research Foundation, priority 2000, dated 2002)", "key": {"[1]": {"test_system": "histone H1", "experiment": "Histone H1 crosslinking by 12% SDS-PAGE with silver staining", "format": "biochemical, calf", "conditions": "5 mM; histone H1, ADP-ribose reaction system", "description": "The following screening scheme is used (see Table 1): AGE-fluorescence is determined at the beginning and after five days of incubation. Test compounds that are inherently fluorescent (designated false negatives) were identified by the initial fluorescence measurement (See Table 1, NADH for example). Since these are compounds of uncertain activity, they are diverted directly to the second stage of the screen. Aminoguanidine, a known glycation inhibitory agent, was used as a positive control for suppression of the increase on AGE-fluorescence. After five days incubation and plate reading, fluorescence quenchers (designated false positives) are excluded by measuring the quenching activity of the test compound by addition of AGE modified protein having known fluorescence activity to one microtiter plate well containing test compound in the complete reaction mixture. For this, AGE-BSA is used as the AGE-type fluorescence standard. This AGE-BSA test excludes false positives compounds that function by fluorescence quenching. If fluorescence quenching occurs the test compound is excluded from further screening. […] The protein is visualized by silver staining of the gel. […] A compound that passes the first and second stage of the screen is considered a glycation inhibitor and is further evaluated for biological activity as described below. […]"}, "[2]": {"test_system": "CF-3 cells", "experiment": "Protection of fibroblasts from alpha-dicarbonyl stress (cell count after 72 hour exposure)", "format": "cell-based, human", "conditions": "FIG. 14", "description": "(§1) A continuous cell line of human epidermal keratinocytes (HaCat cells) and human dermal fibroblasts (CF-3 cells) were routinely cultured in 75 cm^2 flasks and split biweekly in DMEM containing 10% fetal bovine serum and kept in a humidified atmosphere containing 5% CO2 at 37° C. Human keratinocytes were split using 5% trypsin and human fibroblasts employed 1% trypsin. All experiments were carried out on 6 well dishes (Falcon USA), where keratinocytes were seeded at 2×10^4 cells/well and fibroblasts at 4×10^4 cells/well. Cells were left overnight to attach to the plate and the appropriate carbonyl scavenger was then added 15 minutes prior to the addition of the alpha-dicarbonyl stress compounds glyoxal or methylglyoxal. Following 72 hour exposure to the stress compound, cells were counted with a Coulter counter. the protective effects of the alpha-dicarbonyl scavengers were assessed by comparing the growth of untreated cells with cells exposed to alpha-carbonyl stress +/− test compound."}, "[3]": {"test_system": "glycation of histone H1 by ADP-ribose", "experiment": "Screening of inhibitors of nonoxidative advanced glycation: AGE-fluorescence on 96 well-microtiter plate", "format": "biochemical, calf", "conditions": "(± SEM, n = 2); for AGE-fluorescence (day 5): complete reaction under air", "description": "All operations were carried out at 4° C. Chromatin was isolated from fresh calf thymus by extraction with 0.14 M NaCl, 0.05 M Na2S2O5, as described earlier in Wondrak supra. After repeated extraction with 5% HCl)4 and centrifugation (1500 g), histone H1 was precipitated from the supernatant by addition of TCA (20% final concentration v/v). The histone H1 precipitate was colleted by centrifugation (12,000 g) and deionized water. After extensive dialysis (MW cut-off: 12,000-14,000) against water for 48 h, the sample was lyophilized and the protein was stored at 4° C. SDS-PAGE (12%) was used to analyze the purity of the preparation.\nEarlier studies have reported that D-penicillamine inhibits collagen crosslinking and AGE fluorescence caused by sugars (McPherson, J. D., Shilton, B. H., and Walton, D. J. 1988. Role of Fructose in Glycation and Cross-Linking of Proteins. Biochemistry 27, 1901-1907) and reaction of D-penicillamine with aldehyde groups of proteins (Deshmukh, K., and Nimm, M. E. 1969. A Defect in the Intramolecular and Intermolecular Cross-linking of Collagen caused by Penicillamine. J. Biol. Chem. 244, 1787-1795). A number of different penicillamines and penicillamine derivatives were tested to determine the inhibition of AGE-fluorescence on histone H1 at physiological pH. The reaction conditions for the glycation of histone H1 by ADP-ribose mimic physiological conditions to the extent possible. Reaction mixtures contain 1.5 mg/ml histone Hl, 1.0 mM ADP-ribose, 50 mM potassium phosphate buffer, pH 7.4, 37° C. D,L-penicillamine; L-penicillamine; D-penicllamine; D-penicillaminedisulfide and N,S- isopropylidine-D-penicillamine were tested in concentrations of 1,5 and 10 mM. The detected reaction parameter representing the accumulation of protein damage is AGE-fluorescence ((λex=[…]), which is suppressed by the presence of a compound with inhibitory activity. Generation of AGE-type fluorescence (λex=355 nm; λem=405 nm) was monitored over time at 37° C; which is in the range of the broad excitation/emission maxima of AGE compounds. To allow high throughput sample processing on 96 well microtiter plates, the reaction volumes are 300 μl. Fluorescence on the 96-well microtiter plates was measured using an automated microtiter fluorescence reader. Fluorescence of the 1 ml samples of the glycation reaction mixtures was measured using a Hitachi F-200 fluorescence spectophotometer, and prior to measurement the protein sample is dialyzed extensively against water (MW cutoff=[…]), lyophilized and reconstituted in reaction buffer. For inhibitor screening the plate is read on a Fluoroskan II plate reader (Titertek, ICN) at the excitation/emission wavelengths set forth above at a bandwidth of 35 nm.\nThe following screening scheme is used (see Table 1): AGE-fluorescence is determined at the beginning and after five days of incubation. Test compounds that are inherently fluorescent (designated false negatives) were identified by the initial fluorescence measurement (See Table 1, NADH for example). Since these are compounds of uncertain activity, they are diverted directly to the second stage of the screen. Aminoguanidine, a known glycation inhibitory agent, was used as a positive control for suppression of the increase on AGE-fluorescence. After five days incubation and plate reading, fluorescence quenchers (designated false positives) are excluded by measuring the quenching activity of the test compound by addition of AGE modified protein having known fluorescence activity to one microtiter plate well containing test compound in the complete reaction mixture. For this, AGE-BSA is used as the AGE-type fluorescence standard. This AGE-BSA test excludes false positives compounds that function by fluorescence quenching. If fluorescence quenching occurs the test compound is excluded from further screening. […] The protein is visualized by silver staining of the gel. […]"}, "[4]": {"test_system": "HaCat cells", "experiment": "Protection of keratinocytes from alpha-dicarbonyl stress (cell count after 72 hour exposure)", "format": "cell-based, human", "conditions": "FIG. 14", "description": "as §1"}}, "data": [{"smiles": "N=C(N)NN", "note": "[Aminoguanidine]", "values": [{"measurement": "inhibition of histone H1 crosslinking", "setting": "[1]", "value": "inhibit histone H1 crosslinking"}, {"measurement": "protection from alpha-dicarbonyl stress", "setting": "[2]", "value": "protection"}, {"measurement": "AGE-fluorescence (day 0)", "setting": "[3]; compound 1 mM", "value": "1.2 (0.1) relative units"}, {"measurement": "AGE-fluorescence (day 5)", "setting": "[3]; compound 1 mM", "value": "4.3 (0.2) relative units"}, {"measurement": "AGE-fluorescence (day 0)", "setting": "[3]; compound 5 mM", "value": "1.2 (0.1) relative units"}, {"measurement": "AGE-fluorescence (day 5)", "setting": "[3]; compound 5 mM", "value": "2.0 (0.0) relative units"}, {"measurement": "AGE-fluorescence (day 0)", "setting": "[3]; compound 10 mM", "value": "1.3 (0.1) relative units"}, {"measurement": "AGE-fluorescence (day 5)", "setting": "[3]; compound 10 mM", "value": "1.8 (0.0) relative units"}, {"measurement": "protection from alpha-dicarbonyl stress", "setting": "[4]", "value": "protection"}]}]}
